Experiment [1] is described as follows: THP-1 cell cytotoxicity, dose response, cytotoxicity control for non-replicating M. tuberculosis project (AID 489025). The class given is functional.
Experiment [2] can be described thus: Luminescence Cell-Based Dose Retest to Confirm Inhibitors of Cancer Stem Cells. [Related pubchem assays (depositor defined):AID2717, AID2721]. The class given is functional. To be noted: Homo sapiens.
Experiment [3] in a line: HepG2 cell cytotoxicity, dose response, cytotoxicity control for non-replicating M. tuberculosis project (AID 489018). The class given is functional. To be noted: Mycobacterium tuberculosis.
A short description of experiment [4]: cells. The class given is functional.
A further experiment has as its target SUMO-activating enzyme (Homo sapiens, UniProt Q9UBT2). Kind of experiment: SUMOylation inhibitor hit validation, confirmation, SUMOylation inhibitor project, biochemical, AlphaScreen (AID 2018). It counts as functional.
A short description of experiment [5]: inhibitors of firefly luciferase expression or activity, dose response, H4 neuroglioma cells, luminescence (AID 1990). The class given is functional, cell-based.
Experiment [6] in a line: luciferase reporter signal reduction – luminescence, H4-C neuroglioblastoma cells, dose response (AID 2458).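 Also: H4 neuroglioblastoma cells stably carrying a luciferase reporter gene fusion.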 It counts as functional, cell-based. A general note: A reporter such as luciferase makes a cellular process visible.
Experiment [7] deals with BJ. Kind of experiment: cytotoxicity toward BJ-TERT fibroblasts, dose response, cell-based, RAS-independent, luminescence (AID 1933). Particulars: Homo sapiens. The class given is functional.
Experiment [8] is described as follows: cells. The class given is functional, cell-based.
The nature of experiment [9]: Luminescence Cell-Based Dose Response HTS to Identify Inhibitors of 5'UTR Stem-Loop Driven Prion Protein mRNA Translation in H4 Neuroglioblastoma Cells. [Related pubchem assays: 1827 (Project Summary), 1813 (Primary HTS)]. The class given is functional.
The nature of experiment [10]: inhibitors of SNCA 5'UTR-driven reporter translation, confirmation, H4 neuroglioma cells, luminescence (AID 1988). It counts as functional, cell-based.
Experiment [11] concerns BJ. Kind of experiment: cells. It counts as functional, cell-based. Particulars: Homo sapiens.
Experiment [12] concerns BJ. Kind of experiment: cytotoxicity toward BJ-TERT-LT-ST fibroblasts, dose response, cell-based, RAS-independent, luminescence (AID 1935).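 Also: BJ fibroblasts immortalized with TERT plus LT and ST oncogenes.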 The class given is functional. Particulars: Homo sapiens.
Experiment [13] is described as follows: cytotoxicity toward DRD oncogenic fibroblasts, dose response, cell-based, non-viral oncogenic, luminescence (AID 1934). It counts as functional. Particulars: Homo sapiens.
Experiment [14] in a line: inhibitors of SNCA 5'UTR-driven translation, confirmation, luminescence, H4 neuroglioblastoma cells, dose confirmation (AID 2454).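 Also: H4 neuroglioblastoma cells carrying an alpha-synuclein 5'UTR luciferase reporter; potency for inhibition of the luciferase signal.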 It counts as functional, cell-based.
The nature of experiment [15]: cytotoxicity in HEK-293T cells, dose response, cytotoxicity control for TCR NF-kB inhibitor project, luminescence, T-cell screen hits (AID 489026).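 Also: cells exposed to compound about 14 hours before the viability readout.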 It counts as functional, cell-based.
Experiment [16] deals with BJ. Kind of experiment: cytotoxicity toward Ras-transformed BJeLR fibroblasts, dose response, cell-based, alamar blue fluorescence, cherrypicked samples (AID 2631).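 Also: confirmatory dose-response assay in RAS-dependent BJ fibroblasts engineered with TERT, LT and ST, with cytotoxicity read by fluorescence.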 It counts as functional. Particulars: Homo sapiens. For orientation: Alamar Blue is a resazurin reagent that responds to reducing activity.
Experiment [17] concerns the target Intestinal-type alkaline phosphatase (Mus musculus, UniProt P24822). Kind of experiment: PubChem AID 488785. The class given is functional.
The target of experiment [18] is T1, Alkaline phosphatase, tissue-nonspecific isozyme (Homo sapiens, UniProt P05186).
T1 sequence (P05186 whole entry): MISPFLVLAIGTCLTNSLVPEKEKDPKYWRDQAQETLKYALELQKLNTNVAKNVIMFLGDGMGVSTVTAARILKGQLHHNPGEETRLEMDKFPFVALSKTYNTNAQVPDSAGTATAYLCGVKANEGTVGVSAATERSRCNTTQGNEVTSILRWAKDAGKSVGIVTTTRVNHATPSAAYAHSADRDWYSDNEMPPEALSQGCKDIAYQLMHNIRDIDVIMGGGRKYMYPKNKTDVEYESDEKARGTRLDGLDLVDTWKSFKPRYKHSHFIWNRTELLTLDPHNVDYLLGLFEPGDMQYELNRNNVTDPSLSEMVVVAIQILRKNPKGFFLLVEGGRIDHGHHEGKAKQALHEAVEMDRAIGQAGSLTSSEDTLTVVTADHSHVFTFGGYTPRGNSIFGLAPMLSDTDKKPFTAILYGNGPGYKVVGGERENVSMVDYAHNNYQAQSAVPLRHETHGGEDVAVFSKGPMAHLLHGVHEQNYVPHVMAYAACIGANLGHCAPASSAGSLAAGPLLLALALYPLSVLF
Kind of experiment: TNAP enzyme inhibition by screening hits, dose response, selectivity assay for mouse IAP inhibitor project, biochemical, human TNAP, uHTS hits (AID 488906). The class given is functional.

In experiment [19] the target is Intestinal-type alkaline phosphatase (Homo sapiens, UniProt P09923). Description: inhibition of human intestinal alkaline phosphatase – biochemical, dose response (AID 488876). It counts as functional.
Chain of Intestinal-type alkaline phosphatase (Homo sapiens, UniProt P09923) (P09923 whole entry): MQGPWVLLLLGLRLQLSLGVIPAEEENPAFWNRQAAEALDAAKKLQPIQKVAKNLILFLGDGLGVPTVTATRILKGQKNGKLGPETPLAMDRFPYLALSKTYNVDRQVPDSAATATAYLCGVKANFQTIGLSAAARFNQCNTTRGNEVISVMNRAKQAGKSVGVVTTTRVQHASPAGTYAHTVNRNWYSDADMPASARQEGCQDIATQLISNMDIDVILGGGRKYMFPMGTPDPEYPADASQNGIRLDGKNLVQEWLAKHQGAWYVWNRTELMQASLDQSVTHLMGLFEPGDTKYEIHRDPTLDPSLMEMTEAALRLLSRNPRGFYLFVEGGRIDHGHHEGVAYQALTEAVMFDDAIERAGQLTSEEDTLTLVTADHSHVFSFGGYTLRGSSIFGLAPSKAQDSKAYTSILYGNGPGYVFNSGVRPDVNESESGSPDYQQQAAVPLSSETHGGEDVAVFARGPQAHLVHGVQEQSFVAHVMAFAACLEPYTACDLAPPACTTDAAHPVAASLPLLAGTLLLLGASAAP
Experiment [20] concerns the target DNA dC->dU-editing enzyme APOBEC-3G (Homo sapiens, UniProt Q9HC16). Kind of experiment: Dose Response confirmation of small molecule APOBEC3G DNA Deaminase Inhibitors via a fluorescence-based single-stranded DNA deaminase assay. [Related pubchem assays (depositor defined):AID493012, AID493028]. It counts as functional.
Experiment [21] can be described thus: Vero E6 cell cytotoxicity, dose response, cytotoxicity control for non-replicating M. tuberculosis project, secondary assay (AID 492998). Particulars: Vero C1008. The class given is functional, VeroE6.
The next experiment deals with INS1. Kind of experiment: beta cell apoptosis inhibitors, cytokine rescue, dose response, luminescence, retest (AID 449756).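 Also: cell death triggered by IL-1 beta plus TNF-alpha plus IFN-gamma mixture; protective hits raise ATP signal compared with cytokine alone wells.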 The class given is functional, cell-based. Particulars: Rattus norvegicus.
Experiment [22] has as its target T2, Rac GTPase-activating protein 1 (Homo sapiens, UniProt Q9H0H5).
T2 sequence (Q9H0H5 whole entry): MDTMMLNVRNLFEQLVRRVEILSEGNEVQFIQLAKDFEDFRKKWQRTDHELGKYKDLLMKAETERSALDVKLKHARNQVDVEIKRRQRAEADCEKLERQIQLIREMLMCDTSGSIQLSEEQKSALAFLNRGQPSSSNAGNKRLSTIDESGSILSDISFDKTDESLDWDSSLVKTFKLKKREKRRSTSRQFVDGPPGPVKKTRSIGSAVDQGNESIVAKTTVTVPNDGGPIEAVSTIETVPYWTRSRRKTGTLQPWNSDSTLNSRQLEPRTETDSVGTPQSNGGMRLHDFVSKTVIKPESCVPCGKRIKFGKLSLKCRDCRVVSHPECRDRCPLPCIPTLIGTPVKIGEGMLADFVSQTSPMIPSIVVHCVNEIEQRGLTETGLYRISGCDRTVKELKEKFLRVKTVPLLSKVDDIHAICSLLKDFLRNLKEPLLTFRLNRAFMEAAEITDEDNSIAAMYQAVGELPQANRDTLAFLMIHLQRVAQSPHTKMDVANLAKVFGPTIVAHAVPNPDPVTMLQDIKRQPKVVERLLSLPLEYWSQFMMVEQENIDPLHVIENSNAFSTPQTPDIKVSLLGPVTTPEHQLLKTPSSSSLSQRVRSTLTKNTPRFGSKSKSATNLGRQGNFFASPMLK
Kind of experiment: MgcRacGAP GTPase-activating activity inhibitors, confirmation, biochemical, ADP Hunter fluorescence, primary and confirmatory (AID 624330). It counts as functional.

Experiment [23] is described as follows: Luminescence Cell-Based Dose Response to Identify Activators of 5'UTR Stem-Loop Driven Prion Protein mRNA Translation in H4-C Neuroglioblastoma Cells. [Related pubchem assays: 1829 (Project Summary), 1814 (Primary HTS)]. It counts as functional.
A short description of experiment [24]: Luminescence Cell-Based Dose Confirmation HTS to Identify Activators of 5'UTR Stem-Loop Driven Alpha-Synuclein mRNA Translation in H4 Neuroglioblastoma Cells. [Related pubchem assays: 1829 (Project Summary), 1814 (Primary HTS)]. The class given is functional.
Experiment [25] can be described thus: Luminescence Cell-Based Dose Response HTS to Identify Activators of Luciferase Translation or Activity in H4 […] Cells. [Related pubchem assays: 1829 (Project Summary), 1814 (Primary HTS)]. The class given is functional.
The subject of another experiment is H4. Description: Luminescence Cell-Based Dose Response HTS to Identify Activators of 5'UTR Stem-Loop Driven Prion Protein mRNA Translation in H4 Neuroglioblastoma Cells. [Related pubchem assays: 1829 (Project Summary), 1814 (Primary HTS)]. It counts as functional. Particulars: Homo sapiens.
Experiment [26] in a line: Luminescence Cell-Based Dose Response to Identify Activators of Luciferase Translation or Activity in H4-C Neuroglioblastoma Cells. [Related pubchem assays: 1829 (Project Summary), 1814 (Primary HTS)]. The class given is functional.
A short description of experiment [27]: microbe, parasite or virus in culture. It counts as functional. Particulars: Mycobacterium tuberculosis.
Experiment [28] is described as follows: growth suppression of PTEN-null colon cells, dose response, cell-based, HCT116 PTEN knockout (AID 1047).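 Also: HCT116 colon tumor cells with PTEN knocked out; cells exposed to compound for 60 hours before readout; potency for loss of cell viability measured by luminescence.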 It counts as functional.
Experiment [29] is described as follows: Luminescence Cell-Based Dose Confirmation to Identify Activators of 5'UTR Stem-Loop Driven Alpha-Synuclein mRNA Translation in H4 Neuroglioblastoma Cells. [Related pubchem assays: 1829 (Project Summary), 1814 (Primary HTS)]. It counts as functional.
A short description of experiment [30]: growth suppression of beta-catenin-knockout colon cells, dose response, cell-based, HCT116, human colon tumor (AID 1045).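 Also: HCT116 colon tumor cells with beta catenin knocked out; cells exposed to compound for 60 hours.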 It counts as functional.
Experiment [31] has as its target Heat shock protein HSP 90-alpha (Homo sapiens, UniProt P07900). The class given is functional, organism-based.
The next experiment deals with Paired box protein Pax-8 (Homo sapiens, UniProt Q06710). Kind of experiment: inhibitors of PAX8-driven TPO luciferase reporter, dose response, RMG-I cells, cherry-pick (AID 687027).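 Also: luciferase reporter driven by Pax8 target thyroperoxidase promoter measured by SteadyGlo luminescence.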 It counts as functional, cell-based.
Chain of Paired box protein Pax-8 (Q06710 whole entry): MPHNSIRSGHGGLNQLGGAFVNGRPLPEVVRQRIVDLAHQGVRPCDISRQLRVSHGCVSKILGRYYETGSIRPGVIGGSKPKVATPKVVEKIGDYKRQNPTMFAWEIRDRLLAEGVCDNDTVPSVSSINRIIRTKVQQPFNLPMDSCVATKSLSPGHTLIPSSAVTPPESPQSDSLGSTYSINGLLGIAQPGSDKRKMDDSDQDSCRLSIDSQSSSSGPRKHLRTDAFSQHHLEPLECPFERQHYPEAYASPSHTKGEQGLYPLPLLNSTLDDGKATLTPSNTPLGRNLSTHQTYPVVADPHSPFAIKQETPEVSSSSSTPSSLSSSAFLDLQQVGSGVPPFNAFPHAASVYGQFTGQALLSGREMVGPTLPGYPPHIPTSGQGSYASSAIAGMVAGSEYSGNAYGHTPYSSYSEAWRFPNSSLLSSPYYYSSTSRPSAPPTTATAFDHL

Structures are written as SMILES. Active and inactive are the calls of the source.

The term AC50 denotes the midpoint of the concentration-response curve, whichever way the signal moves. By IC50 is commonly meant the concentration that inhibits the measured activity by half. In general, EC50 refers to the concentration needed to bring the measured effect to its halfway point.

Chain of DNA dC->dU-editing enzyme APOBEC-3G (Q9HC16 whole entry): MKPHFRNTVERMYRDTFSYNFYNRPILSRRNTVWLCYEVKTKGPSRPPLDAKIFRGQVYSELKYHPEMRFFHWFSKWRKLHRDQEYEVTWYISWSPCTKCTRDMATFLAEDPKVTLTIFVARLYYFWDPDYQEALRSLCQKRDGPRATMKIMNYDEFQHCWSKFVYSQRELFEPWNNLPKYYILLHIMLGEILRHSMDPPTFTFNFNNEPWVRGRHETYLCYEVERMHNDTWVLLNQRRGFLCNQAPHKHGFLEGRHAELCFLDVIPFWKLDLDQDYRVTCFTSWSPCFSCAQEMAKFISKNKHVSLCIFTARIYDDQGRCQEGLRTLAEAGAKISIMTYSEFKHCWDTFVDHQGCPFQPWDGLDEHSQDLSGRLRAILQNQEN
Chain of SUMO-activating enzyme (Q9UBE0 whole entry): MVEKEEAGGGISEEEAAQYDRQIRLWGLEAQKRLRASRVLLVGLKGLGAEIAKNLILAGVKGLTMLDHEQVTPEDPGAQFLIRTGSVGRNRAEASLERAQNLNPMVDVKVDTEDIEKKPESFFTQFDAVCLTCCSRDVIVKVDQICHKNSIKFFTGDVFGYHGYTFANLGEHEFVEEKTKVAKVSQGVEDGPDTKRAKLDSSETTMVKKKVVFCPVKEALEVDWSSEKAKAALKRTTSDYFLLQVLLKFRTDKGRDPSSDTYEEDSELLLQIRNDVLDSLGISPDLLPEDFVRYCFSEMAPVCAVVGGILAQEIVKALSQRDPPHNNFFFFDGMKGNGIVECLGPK
Chain of SUMO-activating enzyme (Q9UBT2 whole entry): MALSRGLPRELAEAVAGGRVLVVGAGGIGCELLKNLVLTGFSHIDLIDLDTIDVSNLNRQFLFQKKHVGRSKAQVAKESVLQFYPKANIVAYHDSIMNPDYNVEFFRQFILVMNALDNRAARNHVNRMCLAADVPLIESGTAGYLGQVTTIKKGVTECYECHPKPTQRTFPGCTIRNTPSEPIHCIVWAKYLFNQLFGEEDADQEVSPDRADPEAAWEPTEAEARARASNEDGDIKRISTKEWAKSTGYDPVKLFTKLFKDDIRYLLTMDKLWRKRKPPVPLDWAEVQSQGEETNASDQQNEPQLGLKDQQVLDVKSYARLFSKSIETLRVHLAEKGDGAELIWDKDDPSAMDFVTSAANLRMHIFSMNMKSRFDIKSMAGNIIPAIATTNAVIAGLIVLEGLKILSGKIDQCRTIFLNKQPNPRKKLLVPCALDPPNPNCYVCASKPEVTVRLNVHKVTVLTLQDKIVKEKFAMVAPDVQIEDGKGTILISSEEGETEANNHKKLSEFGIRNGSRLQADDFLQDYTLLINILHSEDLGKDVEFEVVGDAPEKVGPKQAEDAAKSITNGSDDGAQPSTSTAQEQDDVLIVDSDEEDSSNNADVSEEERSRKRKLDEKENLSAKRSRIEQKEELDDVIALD
Chain of Intestinal-type alkaline phosphatase (Mus musculus, UniProt P24822) (P24822 whole entry): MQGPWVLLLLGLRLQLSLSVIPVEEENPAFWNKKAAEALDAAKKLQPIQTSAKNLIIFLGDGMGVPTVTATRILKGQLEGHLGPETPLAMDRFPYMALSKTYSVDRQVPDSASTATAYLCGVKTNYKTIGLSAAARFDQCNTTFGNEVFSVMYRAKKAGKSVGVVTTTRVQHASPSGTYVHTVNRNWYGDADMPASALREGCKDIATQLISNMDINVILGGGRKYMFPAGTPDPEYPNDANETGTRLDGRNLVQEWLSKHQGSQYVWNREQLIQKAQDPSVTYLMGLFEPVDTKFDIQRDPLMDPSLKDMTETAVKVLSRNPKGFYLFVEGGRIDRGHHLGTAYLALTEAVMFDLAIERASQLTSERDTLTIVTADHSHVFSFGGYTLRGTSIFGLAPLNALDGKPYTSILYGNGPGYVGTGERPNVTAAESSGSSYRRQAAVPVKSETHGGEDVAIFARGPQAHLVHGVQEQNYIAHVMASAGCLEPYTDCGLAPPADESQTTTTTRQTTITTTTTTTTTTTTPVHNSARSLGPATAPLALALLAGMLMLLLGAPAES

As to `CCC(C)NCCOc1ccc(C(C)(C)c2ccccc2)cc1` (stereo unspecified), the CC50 in experiment [1] is 27.6 µM (active); in experiment [3] it was 19.5 µM (active). The AC50 in experiment [2] was 1.63 µM (active). For the same compound, the IC50 in “cells [4]” was 11.7 µM (active).

On to `O=C1N(c2ccc(Cl)c(Cl)c2)CN(Cc2ccccc2)CN1n1cnnc1`, for which the IC50 on SUMO-activating enzyme was > 100 µM (inactive).

Consider `COc1ccccc1N1CCN(C(=O)c2cc(=O)c3cc(C)cc(C)c3o2)CC1`, for which the EC50 in experiment [5] was 0.101 µM (active); in [6], 0.289 µM (active); in the experiment with BJ [7] it was 0.346 µM (active); in “cells [8]”, 0.415 µM (active); in [9], 0.127 µM (active); in experiment [10], < 0.1 µM (active). Further, the EC50 is 0.938 µM (active) in the experiment on BJ [11]; 0.229 µM (inconclusive) in the experiment on BJ [12]; 0.375 µM (active) in experiment [13]; 0.259 µM (active) in [14]; < 0.104 µM (active) in the experiment with BJ [16]. Besides, the IC50 in [15] was > 80 µM (inactive).

As for `COc1ccc(C2CC(c3ccccc3Cl)=NN2c2ccc(S(N)(=O)=O)cc2)cc1` (stereo unspecified), the IC50 in [17] is 6.02 µM (active); in experiment [18], > 100 µM (inactive); in experiment [19], > 100 µM (inactive).

Take `O=C(Cc1ccc(Cl)cc1Cl)Nc1cccc(S(=O)(=O)Nc2ccccc2F)c1`: the IC50 in experiment [20] was 29.4 µM (active).

On to `CCCCCn1c(=O)c(C(=O)Nc2nc3ccccc3[nH]2)c(O)c2ccccc21`, for which the CC50 in [1] was 6.69 µM (active); in [3], > 20 µM (active); in experiment [21] it was 6.21 µM (active). Moreover, the IC50 in the experiment “cells [4]” was 7.7 µM (active). In addition, the AC50 in the experiment with INS1 was 6.54 µM (active).

As to `CC(C)Cn1c(-c2ccc(Br)o2)n[nH]c1=S`, the IC50 in experiment [20] was 2.83 µM (active); in experiment [22], 105 µM (active).

For the compound `Cc1cc(-c2nnc(S)n2/N=C/C(Br)=C/c2ccccc2)[nH]n1`, the EC50 in experiment [23] is > 12 µM (not active); in [24] it was 77.7 µM (active); in experiment [25] it was < 0.1 µM (active); with H4, > 120 µM (not active); in [26], 8.65 µM (active); in experiment [28], 1.96 µM (active). Moreover, the figures for the EC50 in [29] and in experiment [30] were 0.943 µM (active) and 1.52 µM (active), respectively. In addition, the CC50 in [27] is 29.3 µM (active); in [1] it was 11.1 µM (active); in [3], > 20 µM (active); in experiment [21], 9.01 µM (active). Also, in the experiment “cells [4]”, the IC50 was 4.68 µM (active). Further, the AC50 in [31] is 10.4 µM (active); with INS1, > 60 µM (inactive); at Paired box protein Pax-8, 2.78 µM (active).

On to `CN(C)c1ccc2c(c1)OC(N)=C(C#N)C2c1cccc(F)c1` (stereo unspecified), for which the EC50 in [5] was < 0.1 µM (active); in [6] it was 0.228 µM (active); in “cells [8]”, 0.233 µM (active); in [9], < 0.1 µM (active); in experiment [10] it was < 0.1 µM (active); in experiment [14], 0.338 µM (active). Also, the IC50 in [15] is 40.4 µM (inactive).

Values taken from ChEMBL document CHEMBL1201862, “PubChem BioAssay data set” (2004).
